Data published in US20190038588A1, “NOVEL CLASS OF COMPOUNDS FOR THE TREATMENT OF CARDIOVASCULAR DISEASE” (STICHTING KATHOLIEKE UNIVERSITEIT, priority 2016, published 2019).
Marks after values point to notes of the source that are not given here.

Columns and labels:
[1] = target: T1, mitochondrial complex III (Mus musculus, UniProt P00158); experiment: Complex III enzyme activity in mitochondrial fractions of C2C12 cells (cytochrome c reduction at 550 nm); type: biochemical; settings: compound at 100 μM; background by antimycin A (2.5 μM); n = 3 independent experiments
T1 construct: the supernatant containing the mitochondria was pelleted at 14,000 g; endogenous in cells; host or cells: C2C12 cells, mitochondrial fraction
Protocol: C2C12 pellets of 20·10^6 cells were snap frozen in liquid nitrogen and kept at −80° C. until use. For preparation of the mitochondrial fractions, tissues and cells were homogenized, resuspended in 10 mM Tris-HCl (pH 7.6), and snap frozen in aliquots as follows: cells were resuspended in 10 mM Tris-HCl and pottered, and sucrose was added (215 mM). The lysate was cleared of unbroken cells by centrifugation (10 minutes 600 g) after which the supernatant containing the mitochondria was pelleted at 14,000 g for 10 minutes, resuspended in 10 mM Tris-HCl (pH 7.6), and snap frozen in aliquots. Complex III enzyme activity was measured spectrophotometrically in duplicate as described before by determination of the cytochrome c reduction at 550 nm (Janssen et al., 2007; Mourmans et al., 1997; Rodenburg, 2011). For these measurements the following substrates were used: decylubiquinol (300 μM) and cytochrome c (50 μM). Background substraction was based on decylubiquinol auto-oxidation rates for FIG. 2, and on antimycin A (2.5 μM) for table 4. The enzyme activity was determined using the linear domain of the curve. These experiments were generally performed in small reaction volumes to increase throughput. Experiments in larger reaction volumes can improve reliability of obtained values, and are planned.

[2] = target: T2, catalytic domain of the human HMG-CoA reductase (Homo sapiens, UniProt P04035); experiment: HMG-CoA reductase activity and inhibition assay (Sigma CS-1090 kit, NADPH oxidation at 340 nm); type: biochemical; settings: compound at 300 nM; n = 3 independent experiments
T2 construct: containing the catalytic domain of the human HMG-CoA reductase; purchased Sigma-Aldrich CS-1090
T2 sequence (P04035 426-888 limits assumed): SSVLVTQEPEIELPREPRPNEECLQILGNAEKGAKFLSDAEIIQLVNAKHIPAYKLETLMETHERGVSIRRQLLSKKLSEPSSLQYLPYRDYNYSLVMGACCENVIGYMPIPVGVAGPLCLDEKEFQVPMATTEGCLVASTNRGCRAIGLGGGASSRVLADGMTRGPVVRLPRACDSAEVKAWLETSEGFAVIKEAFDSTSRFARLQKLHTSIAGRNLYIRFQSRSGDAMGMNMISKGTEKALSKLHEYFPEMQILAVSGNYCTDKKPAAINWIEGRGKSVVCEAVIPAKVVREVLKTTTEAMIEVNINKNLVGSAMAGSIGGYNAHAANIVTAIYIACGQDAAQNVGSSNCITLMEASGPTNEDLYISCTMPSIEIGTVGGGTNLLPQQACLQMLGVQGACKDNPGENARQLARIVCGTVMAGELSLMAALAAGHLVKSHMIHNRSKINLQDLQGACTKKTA
Protocol: The human HMG-CoA reductase activity and inhibition assays were performed using the HMG-CoA reductase Assay Kit from Sigma-Aldrich (Sigma CS-1090), containing the catalytic domain of the human HMG-CoA reductase. Enzyme activity was determined spectrophotometrically, measuring the oxidation of NADPH at 340 nm. The reaction mixture contained: 0.13 mM HMG-CoA, HMG-CoA reductase, and 50 mM Tris-HCl, (pH 7.5). After 15 min incubation at 37° C., the reaction was started with the addition of 0.13 mM NADPH, and monitored for 30 min. The enzyme activity was determined using the linear domain of the curve. These experiments were generally performed in small reaction volumes to increase throughput. Experiments in larger reaction volumes can improve reliability of obtained values, and are planned.

HMG-CoA reductase = target: T3, HMG-CoA reductase (Homo sapiens, UniProt P04035); settings: Kajinami K, 2003; Istvan ES, 2001; cited from earlier work
T3 sequence (P04035 1-888): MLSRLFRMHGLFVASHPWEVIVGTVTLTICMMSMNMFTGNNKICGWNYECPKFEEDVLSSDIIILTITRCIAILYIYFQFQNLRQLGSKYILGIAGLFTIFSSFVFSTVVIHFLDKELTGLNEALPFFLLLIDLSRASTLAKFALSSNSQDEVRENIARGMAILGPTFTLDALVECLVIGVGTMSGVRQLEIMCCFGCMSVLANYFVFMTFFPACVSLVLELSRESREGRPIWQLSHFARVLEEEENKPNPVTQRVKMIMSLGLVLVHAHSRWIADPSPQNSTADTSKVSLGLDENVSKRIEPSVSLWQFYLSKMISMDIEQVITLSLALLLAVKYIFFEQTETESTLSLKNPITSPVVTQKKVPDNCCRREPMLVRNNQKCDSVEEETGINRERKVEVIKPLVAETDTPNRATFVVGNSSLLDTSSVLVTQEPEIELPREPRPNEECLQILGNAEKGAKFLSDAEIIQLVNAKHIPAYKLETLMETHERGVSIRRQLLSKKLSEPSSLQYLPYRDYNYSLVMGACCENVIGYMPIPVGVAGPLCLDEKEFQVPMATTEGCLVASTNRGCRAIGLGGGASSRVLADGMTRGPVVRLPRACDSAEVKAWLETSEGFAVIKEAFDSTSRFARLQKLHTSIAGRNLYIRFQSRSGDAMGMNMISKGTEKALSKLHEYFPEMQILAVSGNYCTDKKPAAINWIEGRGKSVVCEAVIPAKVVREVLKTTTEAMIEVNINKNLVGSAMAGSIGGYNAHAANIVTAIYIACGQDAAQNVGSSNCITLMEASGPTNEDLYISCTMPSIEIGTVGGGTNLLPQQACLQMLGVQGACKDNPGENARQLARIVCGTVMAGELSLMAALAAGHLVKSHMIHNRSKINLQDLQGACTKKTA

SMILES	complex III activity (% of control) Mean (SEM) [1]	HMGR activity (% of control) Mean (SEM) [2]	IC50 (HMG-CoA reductase) [nM]
CC(C)c1c(C(=O)Nc2ccccc2)c(-c2ccccc2)c(-c2ccc(F)cc2)n1CC[C@@H](O)C[C@@H](O)CC(N)=O [atorvastatin amide, 1-((3R,5R)-7-amino-3,5-dihydroxy-7-oxoheptyl)-5-(4-fluorophenyl)-2-isopropyl-N,4-diphenyl-1H-pyrrole-3-carboxamide]	54.34 (7.70) % of control	97.37 (3.89) % of control	–
CC(C)c1nc(N(C)S(C)(=O)=O)nc(-c2ccc(F)cc2)c1/C=C/[C@@H](O)C[C@@H](O)CC#N [rosuvastatin nitrile, N-(5-((3S,5S,E)-6-cyano-3,5-dihydroxyhex-1-en-1-yl)-4-(4-fluorophenyl)-6-isopropylpyrimidin-2-yl)-N-methylmethanesulfonamide]	95.96 (11.43) % of control	102.50 (7.87) % of control	–
CC(C)c1nc(N(C)S(C)(=O)=O)nc(-c2ccc(F)cc2)c1/C=C/[C@@H](O)C[C@@H](O)CC(N)=O [rosuvastatin amide, (3R,5S,E)-7-(4-(4-fluorophenyl)-6-isopropyl-2-(N-methylmethylsulfonamido)-pyrimidin-5-yl)-3,5-dihydroxyhept-6-enamide]	94.39 (6.41) % of control	81.57 (10.29) % of control	–
CC(C)c1nc(N(C)S(C)(=O)=O)nc(-c2ccc(F)cc2)c1/C=C/[C@@H](O)C[C@@H](O)Cc1nc(=O)o[nH]1 [rosuvastatin oxo-oxadiazole, N-(5-((3S,5S,E)-3,5-dihydroxy-6-(5-oxo-2,5-dihydro-1,2,4-oxadiazol-3-yl)hex-1-en-1-yl)-4-(4-fluorophenyl)-6-isopropylpyrimidin-2-yl)-N-methylmethane Sulfonamide]	85.85 (10.62) % of control	88.17 (4.21) % of control	–
CC(C)c1nc(N(C)S(C)(=O)=O)nc(-c2ccc(F)cc2)c1/C=C/[C@@H](O)C[C@@H](O)c1nnn[nH]1 [rosuvastatin nor-tetrazole, N-(5-((3S,5R,E)-3,5-dihydroxy-5-(1H-tetrazol-5-yl)pent-1-en-1-yl)-4-(4-fluorophenyl)-6-isopropylpyrimidin-2-yl)-N-methylmethanesulfonamide]	134.50 (17.29) % of control	86.12 (5.73) % of control	–
CC(C)c1nc(N(C)S(C)(=O)=O)nc(-c2ccc(F)cc2)c1/C=C/[C@@H](O)C[C@@H](O)Cc1nnn[nH]1 [rosuvastatin tetrazole, N-(5-((3S,5S,E)-3,5-dihydroxy-6-(1H-tetrazol-5-yl)hex-1-en-1-yl)-4-(4-fluorophenyl)-6-isopropylpyrimidin-2-yl)-N-methylmethanesulfonamide]	85.24 (4.09) % of control	81.28 (4.70) % of control	–
CC(C)c1nc(N(C)S(C)(=O)=O)nc(-c2ccc(F)cc2)c1/C=C/[C@@H](O)C[C@@H](O)CC(=O)N(C)C [rosuvastatin dimethylamide, (3R,5S,E)-7-(4-(4-fluorophenyl)-6-isopropyl-2-(N-methylmethylsulfonamido)-pyrimidin-5-yl)-3,5-dihydroxy-N,N-dimethylhept-6-enamide]	88.90 (7.89) % of control	91.35 (15.32) % of control	–
CC(C)c1nc(N(C)S(C)(=O)=O)nc(-c2ccc(F)cc2)c1/C=C/[C@@H](O)C[C@@H](O)c1nc(=O)o[nH]1 [rosuvastatin nor-oxo-oxadiazole, N-(5-((3S,5R,E)-3,5-dihydroxy-5-(5-oxo-2,5-dihydro-1,2,4-oxadiazol-3-yl)pent-1-en-1-yl)-4-(4-fluorophenyl)-6-isopropylpyrimidin-2-yl)-N-methylmethane-sulfonamide]	143.50 (15.67) % of control	100.30 (7.82)^a % of control	–
O=C(O)C[C@H](O)C[C@H](O)/C=C/c1c(C2CC2)nc2ccccc2c1-c1ccc(F)cc1 [pitavastatine]	–	–	7
CNC(=O)C[C@H](O)C[C@H](O)/C=C/c1c(-c2ccc(F)cc2)nc(N(C)S(C)(=O)=O)nc1C(C)C [rosuvastatin methylamide, (3R,5S,E)-7-(4-(4-fluorophenyl)-6-isopropyl-2-(N-methylmethylsulfonamido)-pyrimidin-5-yl)-3,5-dihydroxy-N-methylhept-6-enamide]	83.54 (5.98) % of control	82.82 (12.67) % of control	–
